Source: EP1961738A1, “New compounds with antiglutamatergic properties and uses thereof” (Faust Pharmaceuticals, priority 2007, dated 2008)

Tested on: cerebrospinal fluid glutamate level
Assay: Intracerebroventricular retrodialysis in rats with enzymatic chemiluminescent glutamate determination in microdialysates
Assay type: in vivo, Sprague-Dawley rats
Procedure: For this example, intracerebroventricular retrodialysis was performed on rats according to techniques known to those skilled in the art. The analysis of microdialysates was performed according to Israël and collaborators' publication (Neurochem Int 22(1): 53-58, 1993). Procedures are described below:
Surgery was performed on adult male Sprague-Dawley rats weighing 330-340g at the time of surgery. Following induction of anaesthesia with intraperitoneal administration of ketamine/xylazine, animals were secured in a stereotaxic frame in the flat-skull position at a constant setting of -3.3mm between ear and incisor bars. After defining the "stereotaxic zero" in accordance with Paxinos and Watson's atlas (1986), a microdialysis guide cannula was directed towards the right lateral ventricle with the coordinates from Bregma: anteroposterior -0.8mm, mediolateral +1.5mm, and dorsoventral (DV) -1.5mm (CMA12 probe: 2mm membrane) (Khandewal et al., J Neurosci Methods 133(1-2): 181-189, 2004).
The guide cannula was fixed to the skull using dental cement and three stainless steel screws. […]
Samples were subsequently analysed for glutamate determination using an enzymatic assay (Israël et al., 1993). The procedure is based on the oxidation of L-glutamate […] with subsequent NADH production, the NADH being continuously evaluated using the photobacterium chemiluminescent reaction at 460-490nm. […]

Q: Which results are given for `NC(=O)NN=C1C=Cc2ccc(OCCN3CCOCC3)cc2C1=O` [Example 13, 7-(2-morpholin-4-yl-ethoxy) naphtalene-1,2-dione2-semicarbazone]?
A: response of cerebrospinal fluid glutamate level to the compound (rat C (one rat out of five), 30µM solution by retrodialysis for 40min): did not response; decrease of the cerebrospinal fluid glutamate level (rats A, B, D and E (four of five), 30µM solution by retrodialysis for 40min into right lateral ventricle, after 80 minutes, relative to baseline set at 100%): up to 50%
